In patent publication US20150087722A1, “TREATMENT FOR BREAST TUMOR CELL METASTASIS” (China Medical University, priority 2012, published 2015):

Key:
[1] = test system: Rat Skin Tumor Cell (B16F1 cell strain); experiment: MTT cell viability assay; assay type: cell-based; conditions: Mus musculus, B16-F1
[2] = test system: EMT-related proteins in breast tumor cells MCF-7; experiment: western blotting of EMT-related proteins; assay type: cell-based, human; conditions: MCF-7, 10, 15 and 20 μM, 24 h, with dose increasing
Protocol: (§1) FIG. 2A illustrates the expression results of EMT-related proteins in breast tumor cells MDA-MB-231 after the breast tumor cells MDA-MB-231 have been respectively cultured under compound II having concentrations of 0, 0.5, 1 and 2 μM for 24 h; and FIG. 2B illustrates the expression results of EMT-related proteins in breast tumor cells MCF-7 after the breast tumor cells MCF-7 have been respectively cultured under the compound II having concentrations of 0, 10, 15 and 20 μM for 24 h. FIG. 3A illustrates the western blotting results of EMT-related proteins in the breast tumor cells MDA-MB-468, where the breast tumor cells MDA-MB-468 are treated with the compound I having concentrations of 0, 0.5, 1 and 2 μM for 24 h, and FIG. 3B illustrates the western blotting results of EMT-related proteins in the breast tumor cells MDA-MB-435, where the breast tumor cells MDA-MB-435 are treated with the compound I having concentrations of 0, 2.5, 5 and 7.5 μM for 24 h. FIG. 4 illustrates the western blotting results of EMT-related proteins in the human normal breast cells MCF-10A stimulated by TNF-α/TGF-β, where the human normal breast cells MCF-10A are treated with the compound I having concentrations of 2 μM for 24 h. The human normal breast cells stimulated by TNF-α/TGF-β can cause TNF-α/TGF-β-induced EMT in the human normal breast cells MCF-10A. The steps of western blotting include: washing cells with PBS twice at 4° C.; adding a lysis buffer and rubbing the cells by a rubbr policeman so as to lyse cells; putting the lysed cell solution into a 1.5 ml microcentrifuge tube and shaking for 1 min; centrifuging at 12000 rpm for 10 min and taking the supernatant; measuring concentration of the protein through a Bio-Rad protein assay kit; and storing the remained extracted protein solution at −70° C.; taking 100 μg protein solution and adding a SDS/protein loading buffer having the same volume, where the SDS/protein loading buffer has a concentration two times larger than the protein solution; boiling the mixture of the protein solution and the SDS/protein loading buffer at 100° C. for 10 min; cooling and loading the protein samples in each hole of gel; adjusting the voltage to 100 V and running the protein samples on the gel until the tracking dye in the sample buffer reaches the bottom of the gel; and subsequently transferring the protein from the gel using electrophoresis. A PVDF membrane was soaked in methanol until the paper was totally wet. The paper was arranged in a transfer tank placed in a 4° C. ice box, and the protein transfer was performed at a current of […] for 4 h. The PVDF membrane was then taken out, placed in a PBS blocking solution including 1% BSA and shaken for 2 h. Then the PVDF membrane was placed in a blocking solution including a primary antibody and slowly shaken at 100 rpm for 1 h at the room temperature. Subsequently the PVDF membrane was washed with PBST for third times, each time for 3-5 min. According to different […] and different dilution ratios, the PVDF membrane was shaken for 2 h on a horizontal rotator and then washed with PBST for three times. Then luminescence image equipment was used, where the PVDF was placed onto a black metal plate by a plastic pincer and the face including protein was upwards, a 1:1 mixed Chemiluminesent Substrate was added into the membrane and the exposure time depends on the fluorescence intensity of antibodies.

[3] = test system: EMT-related proteins in breast tumor cells MDA-MB-435; experiment: western blotting of EMT-related proteins; assay type: cell-based, human; conditions: MDA-MB-435, 2.5, 5 and 7.5 μM, 24 h, with dose increasing
Protocol: as §1

[4] = test system: EMT-related proteins in breast tumor cells MDA-MB-468; experiment: western blotting of EMT-related proteins; assay type: cell-based, human; conditions: MDA-MB-468, 0.5, 1 and 2 μM, 24 h, with dose increasing
Protocol: as §1

Row | SMILES | IC50 [1] [µM] | expression amount of E-cadherin, p-β-catenin and occludin [2] | expression amount of proteins facilitating tumor cell proliferation (Twist, Snail, vimentin, β-catenin) [2] | expression amount of E-cadherin and occludin [3] | expression amount of proteins facilitating tumor cell proliferation (Snail, vimentin, β-catenin) [3] | expression amount of E-cadherin and occludin [4] | expression amount of proteins facilitating tumor cell proliferation (Snail, vimentin, β-catenin) [4]
1 | COC1=C(OC)C(=O)C(C)=C(C)C1=O [compound II] | 12.8 | increased | decreased | – | – | – | –
2 | COC1=C(OC)C(=O)C(C)=CC1=O [compound I] | – | – | – | increased | decreased | increased | decreased
